Read-outs that look alike come from different tables or passages of the source.
Experiments:
Format in all cases: cell-based
[1] = test system: PC-3 cells (Prostate cancer cells); test: Antitumor activity against PC-3 cells (1), viable cell count; details: Homo sapiens, PC-3, 72 h
Procedure: (§1) PC-3 cells (manufactured by Department of Laboratory Products of Dainippon Pharm. Co. Ltd.) are preliminarily seeded in 35 mm petri dishes containing Dulbecco's modified Eagle medium (DMEM) containing 20% of fetal bovine serum (FBS) in a concentration of 1×10^5/ml. The resulting cells are incubated at 36° C. for 1 day under 5% CO2, and cells are confirmed to be stuck at the bottom of the petri dishes. The resulting PC-3 cells are divided into […], to the first group of which is added (±)-2-(1-hydroxyethyl)-5-hydroxynaphtho[2,3-b]furan-4,9-dione (racemate) in concentrations of 0.5 mM, 0.05 mM and 0.005 mM, and to the second group of which is added adriamycin (Wakenyaku Co. Ltd.) as a control in concentrations of 0.5 mM, 0.05 mM and 0.005 mM. These groups are incubated at 36° C. for 3 days, and viable cells are counted and viability is calculated.

[2] = test system: PC-3 cells; test: Antitumor activity against PC-3 cells (2), viable cell count; details: Homo sapiens
Procedure: as §1
(§2) PC-3 cells obtained in a similar manner in the above (1) are divided into three groups, to the first group of which is added (±)-2-(1-hydroxyethyl)-5-hydroxynaphtho[2,3-b]furan-4,9-dione (racemate) in concentrations of 0.5 mM, 0.05 mM, 0.005 mM and 0.0005 mM, to the second group of which is added an unnatural type 2-(1-hydroxyethyl)-5-hydroxynaphtho[2,3-b]furan-4,9-dione (α-isomer) in concentrations of 0.5 mM, 0.05 mM, 0.005 mM and 0.0005 mM, to the third group of which is added a natural type 2-(1-hydroxyethyl)-5-hydroxynaphtho[2,3-b]furan-4,9-dione (β-isomer) in concentrations of 0.5 mM, 0.05 mM, 0.005 mM and 0.0005 mM, and to the fourth group of which is added mitomycin as a control in concentrations of 0.5 mM, 0.05 mM, 0.005 mM and 0.0005 mM. These groups are incubated at 36° C. for 3 days, and viable cells are counted and viability is calculated.

[3] = test system: Human Intestinal Normal Cells (Cell Systems IE Cells); test: Cytotoxicity assay for human intestinal normal cells, trypan blue; details: 3 days
Procedure: (§3) Each human normal cells are preliminarily seeded in 35 mm petri dishes containing Dulbecco's modified Eagle medium (DMEM) containing 20% of fetal bovine serum (FBS) in a concentration of 1×10^5/ml. The resulting cells are incubated at 36° C. for 1 day under 5% CO2, and cells are confirmed to be stuck at the bottom of the petri dishes. A racemate, α-isomer and β-isomer are each dissolved in DMSO to give solutions in concentrations of 0.5 mM, 0.05 mM, 0.005 mM and 0.0005 mM, 2 μL each of which are added to each cells. The resulting cells are incubated at 36° C. for 3 days, and viable cells are counted by using 0.25% trypan blue and viabilities are calculated. A commercially-available anticancer agent mitomycin is also examined as a control in the test against human skin normal cells, and the results are also shown in TABLE 6.

[4] = test system: Human Hepatic Normal Cells (Cell Systems Hc Cells); test: Cytotoxicity assay for human hepatic normal cells, trypan blue; details: 3 days
Procedure: as §3

[5] = test system: MCF-7 cells (Breast cancer cells); test: Antitumor activity against MCF-7 cells, viable cell count; details: Homo sapiens, MCF7, 72 h
Procedure: as §2
Antitumor activity is examined on MCF-7 cells in a similar manner as in the above (2).

[6] = test system: A-549 cells (Lung cancer cells); test: Antitumor activity against A-549 cells, viable cell count; details: Homo sapiens, A549, 72 h
Procedure: as §2
Antitumor activity is examined on A-549 cells in a similar manner as in the above (2).

[7] = test system: Human Lung Normal Cells (MRC-5); test: Cytotoxicity assay for human lung normal cells, trypan blue; details: 3 days
Procedure: as §3

[8] = test system: Human Skin Normal Cells (Cell System Fb cells); test: Cytotoxicity assay for human skin normal cells, trypan blue; details: for Viability %: human skin normal cells, 3 days
Procedure: as §3

| Structure (SMILES) | viability at 0.5 µM ([2]; PC-3, 72 h) [%] | viability at 5 µM ([2]; PC-3, 72 h) [%] | viability at 50 µM ([2]; PC-3, 72 h) [%] | viability at 500 µM ([2]; PC-3, 72 h) [%] | Viability % ([3]; 0.0005 mM) [%] | Viability % ([3]; 0.005 mM) [%] | Viability % ([3]; 0.05 mM) [%] | Viability % ([3]; 0.5 mM) [%] | Viability % ([4]; 0.0005 mM) [%] | Viability % ([4]; 0.005 mM) [%] | Viability % ([4]; 0.05 mM) [%] | Viability % ([4]; 0.5 mM) [%] | viability at 0.5 µM [5] [%] | viability at 5 µM [5] [%] | viability at 50 µM [5] [%] | viability at 500 µM [5] [%] | Viability % ([8]; 0.0005 mM) [%] | Viability % ([8]; 0.005 mM) [%] | Viability % ([8]; 0.05 mM) [%] | Viability % ([8]; 0.5 mM) [%] | also measured |
| --- | --- | --- | --- | --- | --- | --- | --- | --- | --- | --- | --- | --- | --- | --- | --- | --- | --- | --- | --- | --- | --- |
| CC(O)c1cc2c(o1)C(=O)c1cccc(O)c1C2=O (racemic) [Racemate, (±)-2-(1-hydroxyethyl)-5-hydroxynaphtho[2,3-b]furan-4,9-dione] | 50 | 30 | 0 | 0 | 100 | 80 | 60 | 40 | 100 | 80 | 60 | 30 | 90 | 50 | 20 | 0 | 100 | 80 | 50 | 20 | viability at 5 µM [1]: 50%; viability at 50 µM [1]: 0%; viability at 500 µM [1]: 0%; viability at 0.5 µM [6]: 70%; viability at 5 µM [6]: 50%; viability at 50 µM [6]: 10%; viability at 500 µM [6]: 0%; Viability % ([7]; 0.0005 mM): 100%; Viability % ([7]; 0.005 mM): 80%; Viability % ([7]; 0.05 mM): 60%; Viability % ([7]; 0.5 mM): 30% |
| CC(O)c1cc2c(o1)C(=O)c1cccc(O)c1C2=O (single isomer, unassigned; isomer 2) [α-Isomer, 2-(1-hydroxyethyl)-5-hydroxynaphtho[2,3-b]furan-4,9-dione] | 60 | 30 | 0 | 0 | 100 | 80 | 60 | 40 | 100 | 70 | 40 | 20 | 90 | 60 | 30 | 0 | 100 | 70 | 40 | 30 | viability at 0.5 µM [6]: 70%; viability at 5 µM [6]: 40%; viability at 50 µM [6]: 10%; viability at 500 µM [6]: 0%; Viability % ([7]; 0.0005 mM): 100%; Viability % ([7]; 0.005 mM): 80%; Viability % ([7]; 0.05 mM): 50%; Viability % ([7]; 0.5 mM): 30% |
| CC(O)c1cc2c(o1)C(=O)c1cccc(O)c1C2=O (single isomer, unassigned; isomer 2) [β-Isomer, 2-(1-hydroxyethyl)-5-hydroxynaphtho[2,3-b]furan-4,9-dione] | 40 | 10 | 0 | 0 | 100 | 70 | 50 | 30 | 100 | 50 | 20 | 10 | 70 | 50 | 20 | 0 | 100 | 50 | 20 | 10 | viability at 0.5 µM [6]: 60%; viability at 5 µM [6]: 30%; viability at 50 µM [6]: 10%; viability at 500 µM [6]: 0%; Viability % ([7]; 0.0005 mM): 100%; Viability % ([7]; 0.005 mM): 70%; Viability % ([7]; 0.05 mM): 40%; Viability % ([7]; 0.5 mM): 20% |
| COc1cccc2c1C(=O)c1c(O)c3c(c(O)c1C2=O)C[C@@](O)(C(=O)CO)C[C@@H]3O[C@H]1C[C@H](N)[C@H](O)[C@H](C)O1 [Adriamycin, adriamycin, reference compound] | – | – | – | – | – | – | – | – | – | – | – | – | – | – | – | – | – | – | – | – | viability at 5 µM [1]: 42%; viability at 50 µM [1]: 0%; viability at 500 µM [1]: 0% |
| CO[C@@]12[C@H](COC(N)=O)C3=C(C(=O)C(C)=C(N)C3=O)N1C[C@@H]1N[C@@H]12 [Mitomycin, mitomycin, reference compound] | – | – | – | – | – | – | – | – | – | – | – | – | – | – | – | – | 60 | 30 | 0 | 0 | viability at 0.5 µM ([2]; 72 h, PC-3 cells, 0.0005 mM, 3 days, read-out: Viability %): 40%; viability at 5 µM ([2]; 72 h, PC-3 cells, 0.005 mM, 3 days, read-out: Viability %): 10%; viability at 50 µM ([2]; 72 h, PC-3 cells, 0.05 mM, 3 days, read-out: Viability %): 0%; viability at 500 µM ([2]; 72 h, PC-3 cells, 0.5 mM, 3 days, read-out: Viability %): 0%; viability at 0.5 µM ([5]; MCF-7 cells, 0.0005 mM, 3 days, read-out: Viability %): 60%; viability at 5 µM ([5]; MCF-7 cells, 0.005 mM, 3 days, read-out: Viability %): 30%; viability at 50 µM ([5]; MCF-7 cells, 0.05 mM, 3 days, read-out: Viability %): 10%; viability at 500 µM ([5]; MCF-7 cells, 0.5 mM, 3 days, read-out: Viability %): 0%; viability at 0.5 µM ([6]; A-549 cells, 0.0005 mM, 3 days, read-out: Viability %): 50%; viability at 5 µM ([6]; A-549 cells, 0.005 mM, 3 days, read-out: Viability %): 10%; viability at 50 µM ([6]; A-549 cells, 0.05 mM, 3 days, read-out: Viability %): 0%; viability at 500 µM ([6]; A-549 cells, 0.5 mM, 3 days, read-out: Viability %): 0%; toxicity to normal cells ([8]; summary in words of TABLE 6): very strong toxicity |
